65 compounds from patent US12642270B2, “Substituted thiophene carboxamides, thiophene carboxylic acids and derivatives thereof” (Bayer Aktiengesellschaft, priority 2019, dated 2026) can be followed below.

This data set in a line: Log P by HPLC on reversed phase columns (EEC directive 79/831 Annex V.A8). Format: physicochemical. The conditions noted are these: method [a]. The method, then: In the above tables, measurement of Log P values was performed according to EEC directive 79/831 Annex V.A8 by HPLC (High Performance Liquid Chromatography) on reversed phase columns with the following methods: • ^[a] Log P value is determined by measurement of LC-UV, in an acidic range, with 0.1% formic acid in water and acetonitrile as eluent (linear gradient from 10% acetonitrile to 95% acetonitrile). • ^[b] Log P value is determined by measurement of LC-UV, in a neutral range, with 0.001 molar ammonium acetate solution in water and acetonitrile as eluent (linear gradient from 10% acetonitrile to 95% acetonitrile). • ^[c] Log P value is determined by measurement of LC-UV, in an acidic range, with 0.1% phosphoric acid and acetonitrile as eluent (linear gradient from 10% acetonitrile to 95% acetonitrile). If more than one Log P value is available within the same method, all the values are given and separated by “+”. Calibration was done with straight-chain alkan2-ones (with 3 to 16 carbon atoms) with known Log P values (measurement of Log P values using retention times with linear interpolation between successive alkanones). Lambda-max-values were determined using UV-spectra from 200 nm to 400 nm and the peak values of the chromatographic signals.
Take `COC(=O)C(CC(F)F)NC(=O)c1sc(Br)c(Br)c1Cl` (centres unmarked) [1.0146]: the LogP is 3.62^[a].
Consider `CCOC(=O)C(CC(C)C)NC(=O)c1sc(Br)c(Br)c1Cl` (centres unmarked) [1.0147], for which the LogP was 5.19^[a].
The result for `CCOC(=O)C(CCSC)NC(=O)c1sc(Br)c(Br)c1Cl` (centres unmarked) [1.0148] reads 4.46^[a].
`CCOC(=O)C(Cc1ccccc1)NC(=O)c1sc(Br)c(Br)c1Cl` (centres unmarked) [1.0149]: the LogP is 5.00^[a].
As to `COC(=O)C1(NC(=S)c2sc(Br)c(Br)c2I)CC1` [1.0150], the LogP is 3.99^[a].
For the compound `CCOC(=O)[C@@H](NC(=O)c1sc(Br)c(Br)c1F)C(C)C` [1.0151], the LogP was 4.47^[a].
With `CCOC(=O)[C@H](NC(=O)c1sc(Br)c(Br)c1F)C(C)C` [1.0152], the LogP was 4.47^[a].
The result for `CCOC(=O)[C@@H](Cc1ccccc1)NC(=O)c1sc(Br)c(Br)c1F` [1.0153] reads 4.55^[a]; that for `CCOC(=O)[C@H](Cc1ccccc1)NC(=O)c1sc(Br)c(Br)c1F` [1.0154], 4.55^[a]; that for `COC(=O)[C@H](Cc1ccccc1)NC(=O)c1sc(Br)c(Br)c1F` [1.0155], 4.12^[a].
For `CCOC(=O)[C@@H](CC(C)C)NC(=O)c1sc(Br)c(Br)c1F` [1.0156], the LogP was 4.78^[a].
To `COC(=O)[C@@H](CCSC)NC(=O)c1sc(Br)c(Br)c1F` [1.0158] belongs 3.62^[a].
To `COC(=O)[C@H](CCSC)NC(=O)c1sc(Br)c(Br)c1F` [1.0159] belongs 3.62^[a].
For the compound `COC(=O)[C@H](CC(N)=O)NC(=O)c1sc(Br)c(Br)c1F` [1.0160], the LogP was 1.94^[a].
`COC(=O)[C@@H](CC(N)=O)NC(=O)c1sc(Br)c(Br)c1F` [1.0161]: the LogP was 1.98^[a].
For `COC(=O)C1(NC(=O)c2cc(Cl)c(Br)s2)CC1` [1.0162], the LogP was 2.48^[a].
In the case of `COC(=O)C1(NC(=O)c2sc(Br)c(Cl)c2C)CC1` [1.0163], the LogP was 2.76^[a].
Turning to `COC(=O)C1(NC(=O)c2cc(Br)c(Cl)s2)CC1` [1.0164], the LogP was 2.51^[a].
For `COC(=O)C1(NC(=O)c2sc(Cl)c(Br)c2C)CC1` [1.0165], the LogP is 2.80^[a].
For the compound `CCOC(=O)C1(NC(=O)c2sc(Br)c(Br)c2F)CCC1` [1.0166], the LogP was 3.78^[a].
For `CCOC(=O)CN(C)C(=O)c1sc(Br)c(Br)c1F` [1.0167], the LogP is 3.09^[a].
Consider `Cc1c(C(=O)NC2(C(=O)O)CC2)sc(Br)c1Cl` [1.0168], for which the LogP is 2.20^[a].
Consider `O=C(NC1(C(=O)O)CC1)c1cc(Br)c(Cl)s1` [1.0169], for which the LogP was 2.02^[a].
To `Cc1c(C(=O)NC2(C(=O)O)CC2)sc(Cl)c1Br` [1.0170] belongs 2.21^[a]; to `CCOC(=O)C(C(C)C)N(C)C(=O)c1sc(Br)c(Br)c1F` (centres unmarked) [1.0171], 4.39^[a]; to `O=C(NC1(C(=O)O)CCC1)c1sc(Br)c(Br)c1F` [1.0172], 2.62^[a].
Take `O=C(O)C1(NC(=S)c2sc(Br)c(Br)c2I)CC1` [1.0173]: the LogP was 3.09^[a].
To `NC(=O)C1(NC(=O)c2sc(Br)c(Br)c2F)CC1` [1.0174] belongs 1.94^[a]; to `CCOC(=O)C(NC(=O)c1sc(Br)c(Br)c1F)c1ccccc1` (centres unmarked) [1.0175], 4.47^[a].
To `N#CCNC(=O)c1sc(Cl)c(Br)c1Cl` [1.0176] belongs 2.70^[a]; to `COC(=O)CNC(=O)c1sc(Cl)c(Br)c1Cl` [1.0177], 2.85^[a].
In the case of `CCOC(=O)CNC(=O)c1sc(Cl)c(Br)c1Cl` [1.0178], the LogP was 3.37^[a].
For `CCOC(=O)CCNC(=O)c1sc(Cl)c(Br)c1Cl` [1.0179], the LogP is 3.54^[a].
Take `CCOC(=O)C1(NC(=O)c2sc(Cl)c(Br)c2Cl)CC1` [1.0180]: the LogP was 3.47^[a].
To `COC(=O)C(NC(=O)c1sc(Cl)c(Br)c1Cl)C1CC1` (centres unmarked) [1.0181] belongs 3.91^[a]; to `CCOC(=O)C1(NC(=O)c2sc(Cl)c(Br)c2Cl)CCC1` [1.0182], 4.33^[a]; to `CCOC(=O)C(NC(=O)c1sc(Cl)c(Br)c1Cl)C(C)C` (centres unmarked) [1.0183], 4.97^[a].
In the case of `COC(=O)C(CC(F)F)NC(=O)c1sc(Cl)c(Br)c1Cl` (centres unmarked) [1.0184], the LogP was 3.64^[a].
For the compound `CCOC(=O)C(CC(C)C)NC(=O)c1sc(Cl)c(Br)c1Cl` (centres unmarked) [1.0185], the LogP is 5.20^[a].
For `CCOC(=O)C(CCSC)NC(=O)c1sc(Cl)c(Br)c1Cl` (centres unmarked) [1.0186], the LogP is 4.47^[a].
On to `CCOC(=O)C(Cc1ccccc1)NC(=O)c1sc(Cl)c(Br)c1Cl` (centres unmarked) [1.0187], for which the LogP was 5.04^[a].
To `N#CCNC(=O)c1sc(Cl)c(Cl)c1I` [1.0188] belongs 2.72^[a]; to `CCOC(=O)CCNC(=O)c1sc(Cl)c(Cl)c1I` [1.0189], 3.47^[a]; to `COC(=O)C(NC(=O)c1sc(Cl)c(Cl)c1I)C1CC1` (centres unmarked) [1.0190], 3.84^[a].
To `CCOC(=O)C1(NC(=O)c2sc(Cl)c(Cl)c2I)CCC1` [1.0191] belongs 4.12^[a].
On to `COC(=O)C(CC(F)F)NC(=O)c1sc(Cl)c(Cl)c1I` (centres unmarked) [1.0192], for which the LogP was 3.64^[a].
To `N#CCNC(=O)c1sc(Br)c(Cl)c1Cl` [1.0193] belongs 2.67^[a].
For the compound `COC(=O)CNC(=O)c1sc(Br)c(Cl)c1Cl` [1.0194], the LogP was 2.86^[a].
In the case of `CCOC(=O)CNC(=O)c1sc(Br)c(Cl)c1Cl` [1.0195], the LogP was 3.28^[a].
For `CCOC(=O)CCNC(=O)c1sc(Br)c(Cl)c1Cl` [1.0196], the LogP was 3.47^[a].
Regarding `CCOC(=O)C1(NC(=O)c2sc(Br)c(Cl)c2Cl)CC1` [1.0197], the LogP was 3.47^[a].
With `COC(=O)C(NC(=O)c1sc(Br)c(Cl)c1Cl)C1CC1` (centres unmarked) [1.0198], the LogP was 3.87^[a].
On to `CCOC(=O)C1(NC(=O)c2sc(Br)c(Cl)c2Cl)CCC1` [1.0199], for which the LogP was 4.26^[a].
The result for `CCOC(=O)C(NC(=O)c1sc(Br)c(Cl)c1Cl)C(C)C` (centres unmarked) [1.0200] reads 4.89^[a]; that for `COC(=O)C(CC(F)F)NC(=O)c1sc(Br)c(Cl)c1Cl` (centres unmarked) [1.0201], 3.60^[a]; that for `CCOC(=O)C(CC(C)C)NC(=O)c1sc(Br)c(Cl)c1Cl` (centres unmarked) [1.0202], 5.16^[a].
Take `CCOC(=O)C(CCSC)NC(=O)c1sc(Br)c(Cl)c1Cl` (centres unmarked) [1.0203]: the LogP was 4.44^[a].
To `CCOC(=O)C(Cc1ccccc1)NC(=O)c1sc(Br)c(Cl)c1Cl` (centres unmarked) [1.0204] belongs 5.00^[a].
To `N#CCNC(=O)c1sc(Br)c(Br)c1F` [1.0205] belongs 2.41^[a]; to `N#CCNC(=O)c1sc(Cl)c(Br)c1Br` [1.0206], 2.72^[a]; to `COC(=O)CNC(=O)c1sc(Cl)c(Br)c1Br` [1.0207], 2.91^[a].
In the case of `CCOC(=O)CNC(=O)c1sc(Cl)c(Br)c1Br` [1.0208], the LogP is 3.35^[a].
Take `CCOC(=O)CCNC(=O)c1sc(Cl)c(Br)c1Br` [1.0209]: the LogP was 3.57^[a].
To `CCOC(=O)C1(NC(=O)c2sc(Cl)c(Br)c2Br)CC1` [1.0210] belongs 3.48^[a]; to `COC(=O)C(NC(=O)c1sc(Cl)c(Br)c1Br)C1CC1` (centres unmarked) [1.0211], 3.89^[a].
